Columns and labels:
[1] = tested on: SK-N-BE(2) cells; assay: Cell cycle analysis by flow cytometry (propidium iodide); assay type: cell-based, human; details: SsnB 10 μM, 4 days; control=22.63%
Experimental: (§1) The cell cycle progression was determined by flow cytometer analysis. Neuroblastoma cells were treated with SsnB or DMSO in DMEM with 10% FBS. Cells were collected after trypsinization with trypsin-EDTA solution (Atlanta Biologicals) and washed with 1× phosphate buffered saline (PBS). Approximately 1×10^6 cells were suspended in 300 μl of ice-cold 1×PBS, fixed by adding 700 μl of chilled absolute ethanol (to make final ethanol concentration 70%) drop wise and incubated for overnight at −20° C. Cells were pelleted at 1000×rpm for 5 min at 4° C., washed with 1×PBS for 3 times and stained with propidium iodide (Sigma-Aldrich, St. Louis, Mo.) by adding 1 ml of propidium iodide staining solution (containing 20 μg/ml propidium iodide and 10 μg/ml DNase-free RNase A in 0.1% Triton X-100/PBS) for 1 h on ice in dark. Samples were subjected to fluorescence-activated cell sorting analyses utilizing Beckman Coulter flow cytometer (Beckman Coulter, Indianapolis, Ind.). A minimum of 10,000 events were analyzed in each experiment.
(§2) To test whether SsnB-induced cell growth inhibition occurs through cell cycle arrest, cell cycle distribution was analyzed by flow cytometry after DNA staining with propidium iodide.

[2] = tested on: SKNF-1 cells; assay: as above; assay type: cell-based, human; details: SsnB 10 μM, 4 days; control=14.53%
Experimental: as §1, §2

[3] = tested on: NGP cells; assay: as above; assay type: cell-based, human; details: SsnB 10 μM, 3 days; control=17.87%
Experimental: as §1, §2

[4] = tested on: SH-SY5Y cells; assay: as above; assay type: cell-based, human; details: SsnB 10 μM, 2 days; control=14.33%
Experimental: as §1, §2

[5] = tested on: IMR-32 cells; assay: as above; assay type: cell-based, human; details: SsnB 10 μM, 2 days; control=19.25%
Experimental: as §1, §2

[6] = ROS-generating activity in cell-free system (H2DCFDA, HRP); assay type: biochemical; details: for increase of OD value vs H2DCFDA+HRP reaction: SsnB 10 μM + H2DCFDA 25 μM + HRP 5 units/ml
Experimental: FIG. 2D and FIG. 2E illustrate the ROS generating capacity of SsnB evaluated in a cell-free system containing H2DCFDA (25 μM), horseradish peroxidase (HRP, 5 units/ml), SsnB (10 μM) and glutathione (GSH, 0.25 or 2.5 μM) alone or in various combinations. Optical density (O.D.) at 540 nm were taken at different time points and plotted.
In a reaction system, after the removal of acetate group by cellular esterases and oxidation by reactive oxygen species, the non-fluorescent carboxy-H2DCFDA dye is oxidized to fluorescent molecule carboxy-DCF. To measure the ROS-generating activity of SsnB, the oxidation of carboxy-H2DCFDA dye was monitored in a cell-free system containing carboxy-H2DCFDA dye, horseradish peroxidase (HRP) and SsnB at 540 nm. HRP was used to supply esterase since without esterase carboxy-H2DCFDA is not sensitive to oxidant. […] After addition of HRP (5 units/ml) in the reaction mixture containing SsnB (10 μM)+H2DCFDA dye (25 μM), the OD value increased by 2% in the first 240 sec and further increased by 8% after 15 min compared to H2DCFDA+HRP reaction, indicating the increased oxidation of H2DCFDA to the fluorescent compound.

[7] = tested on: human neuroblastoma cell lines (SH-SY5Y, SKNF-1, NGP, IMR-32 and SK-N-BE(2) cells); assay: Cell morphology by phase contrast microscopy; assay type: cell-based
Excerpt: Human neuroblastoma cell lines (SH-SY5Y, IMR-32, SK-N-BE(2) and SKNF-1 cells) were obtained from The American Type Culture Collection (ATCC; Manassas, Va.), and NGP cells were kind gift from Garrett M. Brodeur (The Children's Hospital of Philadelphia, Philadelphia, Pa.). All cell lines were maintained in complete Dulbecco's Modified Eagle's Medium (DMEM) supplemented with 10% fetal bovine serum (FBS; Atlanta Biologicals, Lawrenceville, Ga.) and 1× antibiotic-antimycotic solution (containing 100 U/ml penicillin, 100 μg/ml streptomycin and 0.25 μg/ml amphotericin B), and grown at 37° C. in a humidified incubator with 5% CO2. Stock solution of SsnB was prepared in dimethyl sulfoxide (DMSO). Cells treated with different concentrations of SsnB in DMEM with 10% FBS were grown for subsequent days. Cells treated with equal volume of DMSO were used as control.
To test the inhibitory effects of SsnB on neuroblastoma cell survival, human neuroblastoma cell lines of different genetic background (SH-SY5Y, SKNF-1, NGP, IMR-32 and SK-N-BE(2) cells) were treated with 1 μM, 5 μM, 10 μM or 20 μM concentration of SsnB under in vitro conditions. Following SsnB treatments, neuroblastoma cell were grown and were photographed under light microscope to evaluate the cell morphology.

[8] = tested on: normal human cells (THP-1 cells, PMA-differentiated THP-1 macrophages, human umbilical vein endothelial cells, human aortic smooth muscle cells); assay: Cytotoxic response in normal human cells; assay type: cell-based; details: 1-20 μM and up to about 100 μM
[9] = tested on: neuroblastoma cell lines; assay: Cell cycle analysis by flow cytometry, all lines together; assay type: cell-based, human
Experimental: as §1, §2

[10] = tested on: SK-N-BE(2) and SH-SY5Y cells; assay: Two layer soft agarose colony formation assay; assay type: cell-based, human; details: SsnB 10 μM, 45 days
Experimental: A two layer soft agarose assay system was used in these studies. Approximately 1×10^4 cells were suspended in 0.35% agarose in DMEM with 10% FBS, and were gently laid on the bottom agarose layer containing 0.8% agarose with DMEM+10% FBS in 35 mm^2 cell culture dishes. Once solidified, the dishes were incubated at 37° C. in a humidified chamber with 5% CO2. Next day, 500 μl of complete cell culture medium with respective concentrations of SsnB was added, and cells were allowed to grow for 45 days in an incubator chamber. Fresh medium with respective concentrations of SsnB was added to the dishes in every 5 days. Cells treated with equal volume of DMSO were used as control. At the end of experiments, cells were stained with 0.1% crystal violet and cell colonies (more than 15 cells per colony) were counted under the light microscope.
The anti-proliferative activity of SsnB to affects the tumor progression property of neuroblastoma cells was tested by performing two layer agarose gel colony formation assays. Agarose gel colony formation assay is an anchorage-independent in vitro cell transformation assay, and mimics the process of in vivo carcinogenesis. Neuroblastoma cells (N-myc amplified cell, SK-N-BE(2), and N-myc nonamplified cell, SH-SY5Y) were grown in agarose in presence or absence of SsnB (1 μM and 10 μM) and after 45 days the number of colonies was counted.

O=c1occ2c3c(ccc(O)c13)Oc1ccc(O)cc1-2 [SsnB, 8,5′-dihydroxy-4-phenyl-5,2′-oxidoisocoumarin]
G2/M phase cells [1]: 27.15% | G2/M phase cells [2]: 20.91% | G2/M phase cells [3]: 26.98% | G2/M phase cells [4]: 23.98% | G2/M phase cells [5]: 23.45% | increase of OD value vs H2DCFDA+HRP reaction ([6]; after 15 min): 8% | increase of OD value vs H2DCFDA+HRP reaction ([6]; first 240 sec): 2% | optical density at 540 nm ([6]; SsnB 10 μM + H2DCFDA 25 μM, without HRP): remained constant | cell morphology (rounded cells, indication of cell death) vs DMSO ([7]; SsnB 10 μM and above, 2, 3 or 4 days depending on line): changed the morphology | morphological changes ([7]; SsnB 1 or 5 μM, any cell line tested): not significant | cytotoxic response [8]: No cytotoxic response | cell cycle progression vs DMSO ([9]; SsnB 1 μM): did not affect cell cycle progression | G0/G1 phase cells ([9]; SsnB 10 μM): decrease in G0/G1 phase cells | size of colonies ([10]; vs control and SsnB 1 μM): significantly smaller | colony formation capability (number of colonies) ([10]; p<0.05 vs control): significantly inhibited the colony formation capability
